Data as given in patent publication US12685733B2, “Indole molecules and use thereof in the inhibition of DNA polymerases” (BioVentures, LLC, priority 2019, dated 2026).

Tests used:
[1] = molecular target: T1, hpol κ (Homo sapiens, UniProt Q9UBT6); assay: HPG labeling (chemical footprinting) with LC-MS; design: hpol κ (residues 19-526); made in house; conditions: IAG-10 20 and 100 μM added
T1 sequence (Q9UBT6 19-526): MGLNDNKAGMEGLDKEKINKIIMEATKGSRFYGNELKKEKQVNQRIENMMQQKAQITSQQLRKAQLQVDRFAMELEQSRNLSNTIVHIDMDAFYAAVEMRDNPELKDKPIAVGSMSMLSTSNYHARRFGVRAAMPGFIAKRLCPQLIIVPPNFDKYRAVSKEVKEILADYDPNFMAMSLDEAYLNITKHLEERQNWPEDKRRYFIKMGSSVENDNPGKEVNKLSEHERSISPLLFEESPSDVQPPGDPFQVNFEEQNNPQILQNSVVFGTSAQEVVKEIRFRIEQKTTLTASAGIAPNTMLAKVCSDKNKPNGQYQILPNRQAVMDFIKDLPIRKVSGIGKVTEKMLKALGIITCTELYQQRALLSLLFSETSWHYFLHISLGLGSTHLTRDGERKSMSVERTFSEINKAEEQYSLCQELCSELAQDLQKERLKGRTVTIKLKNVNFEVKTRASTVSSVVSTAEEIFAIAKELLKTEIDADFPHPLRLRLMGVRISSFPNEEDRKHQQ
Description: HPG is a commonly used amino-acid modifier, which when reacted with a protein, modifies the L-arginine side chains selectively. HPG labeling experiments were performed with hpol κ (10 μM) in the presence or absence of UAMS-48. Briefly, hpol κ was pre-incubated with either 20 μM (1:2 molar ratio) or 100 μM (1:10 molar ratio) IAG-10 for 10 mins at 37° C. in 50 mM HEPES buffer (pH 7.8) containing 200 mM NaCl, 10 mM MgCl2, and 10% v/v DMSO. The HPG labeling was carried out at 37° C. in the dark for 1 hr by adding 500 μM of HPG to the pre-incubated reaction mix, followed by addition of 200 mM of free L-arginine to quench the reaction after 1 hr. […]
The peak intensity was then quantified manually using the corresponding m/z value and the relative abundance for each modified peptide was calculated as a function of area under the peak in Xcalibur™ software (ThermoFisher Scientific). The percentage of modified arginine measured by mass spectrometry was calculated as a fraction of total arginine (i.e. unmodified+HPG modified) quantified for a specific residue. […]
Next, Chemical footprinting was used in an effort to ascertain the binding site of IAG-10 on hpol κ. […] After quenching the reaction and gel electrophoresis, the modified protein was trypsin-digested, and the resulting peptides were analyzed by LC-MS. […]

[2] = test system: T98G spheroids; assay: Spheroid growth rate assay; type: cell-based; conditions: 50 nM or 500 nM, with or without TMZ, 12 days
Description: Cell, spheroid and organoid culture. Grade IV glioma cells (T98G) were obtained from the American Type Culture Collection (ATCC). MCF7 cells were a kind gift from Dr. Timothy Chambers (UAMS). The POLKKO T98G cell lines were generated using CRISPR-Cas9 and validated by immunoblotting (data not shown). For normal culture, these cells were grown in minimum essential media (MEM) containing 10% fetal bovine serum (FBS), 1% (v/v) antibiotic/[…] and incubated at 37° C. in 5% CO2.
For spheroid culture, 24 h prior to plating cells, dishes were coated in 1× poly-HEMA (0.6 g poly-2-hydroxyethyl methacrylate into 50 mL 95% EtOH) under sterile conditions and allowed to dry overnight. Coated dishes were hydrated in 1×PBS for 20 min prior to plating. Spheroids were cultured in NeuroCult NS-A basal medium containing NeuroCult NS-A proliferation supplement, 20 ng/mL human recombinant epidermal growth factor (EGF), 10 ng/mL human recombinant basic fibroblast growth factor (bFGF), and 0.0002% heparin (referred to as NS-A complete medium). […]
Spheroid growth rate assay. […] Spheroids with a diameter of 50 µm or larger were counted as true spheroids and an average size was determined for each well. Changes in average size for each well over the growth time was recorded and used to generate the growth rate. […]

With `Cl.[H]/N=C(\N)NN=Cc1cn(C(=O)c2cccc3ccccc23)c2ccc(Cl)cc12` [IAG-10, (E)-2-((1-(1-naphthoyl)-5-chloro-1H-indol-3-y1)methylene)hydrazine-1-carboximidamide hydrochloride] the “decrease in the fraction of HPG-modified peptides (Arg145, Arg149, Arg505)” value [1] was greater than 50%, the “fraction of HPG-modified peptides containing Arg48” value [1] was “large increase” and the “glioma spheroid growth rate” value [2] was “inhibits glioma spheroid growth rate on its own and also enhances the effects of TMZ”.
